# In US20240383910A1, “SMALL MOLECULE BTK DEGRADERS AND METHODS OF USE THEREOF” (Baylor College of Medicine, priority 2023, published 2024):
# Key:
# BTK [1] = biological target: T1, BTK (Homo sapiens, UniProt Q06187); test: TMT-based quantitative proteomics in Mino cells, BTK; assay type: cell-based; set-up: host or cells: Mino; conditions: 200 nM, 4 h
# Procedure: (§1) Panel a. […] Panel b. […] Panel c. […] Panel d-e. […] Panel g.
# (§2) Two million of Mino cells were treated with DMSO or 200 nM of PS-2 for 4 hours in biological triplicates and cells were harvested by centrifugation (200×g, 4° C., 5 min). Lysis buffer (100 mM Triethylammonium bicarbonate (TEAB, Thermo Fisher Scientific, Cat. No. 90114), 2% SDS) was added to the cell pellets and homogenized with a microtip sonicator (Branson) to achieve a cell lysate with a protein concentration of ˜2 mg mL^−1. Protein concentration was determined using BCA assay (Pierce, Cat. No. 23225) and normalized to 1 mg mL^−1. One hundred μg of protein for each sample were reduced and alkylated with 10 mM Tris(2-carboxyethyl) phosphine hydrochloride (TCEP, Sigma, Cat. No. C4706) and 17 mM iodoacetamide (IAA, Sigma, Cat. No. 16125-5G), followed by digestion with trypsin (1:20, enzyme: protein, Thermo Fisher Scientific, Cat. No. 90058) for 16 h shaking at 37° C. […]
# (§3) Next, tandem mass tagging (TMT)-based quantitative proteomic profiling was performed to evaluate the degradation specificity of PS-2. […] Quantitative proteomics employing TMT chemical labeling coupled with LC/MS/MS enabled the detection of >2,500 unique proteins without fractionation (FIG. 4f). […]
# Mino cells [2] = test: TMT-based quantitative proteomics in Mino cells, degradation specificity over the proteome; assay type: cell-based; conditions: 200 nM, 4 h, >2,500 proteins
# Procedure: as §1, §2, §3
# IKZF1 [3] = biological target: T2, IKZF1 (Homo sapiens, UniProt Q13422+Q96SW2); test: TMT-based quantitative proteomics in Mino cells, IKZF1; assay type: cell-based; conditions: 200 nM, 4 h
# T2 construct: host or cells: Mino
# Procedure: as §1, §2, §3
# BTK [4] = biological target: T1, BTK; test: Western blotting for BTK in Ramos cells; assay type: cell-based; set-up: host or cells: Ramos; conditions: Ramos cells, 40, 200 and 1000 nM, 24 h, Western blot
# Procedure: CC-220 is a IKZF1/3 degrader developed by Celgene and used for comparison.
# In contrast, PS-3, whose warhead is further reduced compared with PS-2, loses its ability to function as either a BTK degrader or a potent IKZF1/3 molecular glue. To confirm this observation, BTK degradation induced by PS-1, PS-2, and PS-3 was tested in both a human B lymphocyte cell line Ramos and mouse BALB/c B cell lymphoma line A20, with DD-03-171 from the Gray group as a positive control (FIG. 5).
# IKZF1 [5] = biological target: T2, IKZF1; test: Western blotting for IKZF1 in Mino cells; assay type: cell-based; conditions: 24 h, Western blot, read-out: IKZF1-WB Endpoint DC50
# Procedure: as §1
# After treatment, whole cell lysates for immunoblotting were prepared by pelleting Mino cells at 4° C. and 200×g for 5 minutes. […] Imaging was performed using the ECL Prime chemiluminescent Western blot detection reagents (Kindle Biosciences, Cat. No. R1100) by visualization of the blots with an Imager (Kindle Biosciences, Cat. No. D1001). All Western blots were subsequently processed and quantified with Imager software ImageJ and protein level was normalized to the B-actin loading controls.
# His-BTK = biological target: T3, His-BTK (Homo sapiens, UniProt Q06187); test: TR-FRET competition binding assay with BTK-BODIPY tracer; conditions: TRFRET assay, up to 100 μM
# T3 construct: purchased SignalChem B10-10H-10
# Procedure: Panels a-b. […] Panel c. […] Panel d. […] Panel e. […] Panel f.
# Time-resolved fluorescence resonance energy transfer (TR-FRET) assay was carried out to evaluate the binding of indicated compounds and BTK by competition with a BODIPY-FL labeled BTK tracer (See FIG. 1, BTK TR-FRET tracer). The assay was performed in 20 μL assay buffer (50 mM Tris, pH7.5, 0.1% Triton X-100, 0.01% BSA, and 1 mM DTT) with 0.3 nM Tb-anti-His (Cisbio, Cat. No. 61HI2TLA), 2 nM His-BTK (SignalChem, Cat. No. […] Unless specified otherwise, all assays were performed in triplicates. The assay mixtures were incubated at room temperature in the dark for 120 min, unless specified otherwise, and the signals were collected using a BioTek Synergy H1 microplate reader to measure the fluorescence emission ratio ([…]) of each well, using a 340-nm excitation filter, a 100-μs delay, and a 200-μs integration time. Raw data from the plate reader were used directly for analysis. The curve-fitting software GraphPad Prism 9 was used to generate graphs and curves and to determine IC50 values.
# To measure the binding affinities between PROTACs and BTK, a time-resolved fluorescence resonance energy transfer (TR-FRET) competition binding assay was developed. A BTK tracer was synthesized by conjugating an ibrutinib-based reversible noncovalent binder with the BODIPY-FL dye (FIG. 1). […] In the presence of the BTK tracer, competition assays were performed to measure the binding affinities between BTK and its inhibitors and PROTACs. […] The very weak BTK binding affinities for PS-RC-1, PS-RC-2, PS-RC-3 and PS-RC-4 explain their minimal BTK degradation effects in cells and further support that the observed growth inhibitory effect of PS-RC-1 in Mino cells is unrelated to the BTK pathway.
# Mino cells [6] = test: cells; conditions: Homo sapiens, 72 h, read-out: IC50, cell growth inhibition / cell viability, Mino cells, 72 h
# Text: The cell viabilities were quantified using an Alarma Blue assay.
# Dataset represents an average of n=3 replicates.
# T1 sequence (Q06187 whole entry): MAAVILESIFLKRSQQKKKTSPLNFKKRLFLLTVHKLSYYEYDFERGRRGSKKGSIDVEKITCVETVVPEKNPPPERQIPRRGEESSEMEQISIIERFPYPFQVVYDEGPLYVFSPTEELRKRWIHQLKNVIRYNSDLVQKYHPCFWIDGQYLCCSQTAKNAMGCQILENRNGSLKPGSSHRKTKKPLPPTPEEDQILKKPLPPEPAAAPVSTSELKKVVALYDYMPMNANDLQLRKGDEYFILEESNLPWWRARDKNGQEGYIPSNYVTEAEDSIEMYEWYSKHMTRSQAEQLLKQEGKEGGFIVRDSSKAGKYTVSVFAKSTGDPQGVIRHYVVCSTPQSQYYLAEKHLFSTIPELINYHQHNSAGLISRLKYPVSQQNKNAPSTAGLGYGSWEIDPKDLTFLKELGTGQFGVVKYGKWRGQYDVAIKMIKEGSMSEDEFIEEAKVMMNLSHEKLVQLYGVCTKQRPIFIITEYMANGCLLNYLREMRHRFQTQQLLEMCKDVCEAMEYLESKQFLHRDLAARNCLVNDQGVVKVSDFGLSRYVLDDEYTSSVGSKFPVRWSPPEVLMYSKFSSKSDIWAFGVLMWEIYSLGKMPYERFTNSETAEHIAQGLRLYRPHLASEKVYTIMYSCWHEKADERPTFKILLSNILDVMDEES
# T2 sequence (Q13422 whole entry): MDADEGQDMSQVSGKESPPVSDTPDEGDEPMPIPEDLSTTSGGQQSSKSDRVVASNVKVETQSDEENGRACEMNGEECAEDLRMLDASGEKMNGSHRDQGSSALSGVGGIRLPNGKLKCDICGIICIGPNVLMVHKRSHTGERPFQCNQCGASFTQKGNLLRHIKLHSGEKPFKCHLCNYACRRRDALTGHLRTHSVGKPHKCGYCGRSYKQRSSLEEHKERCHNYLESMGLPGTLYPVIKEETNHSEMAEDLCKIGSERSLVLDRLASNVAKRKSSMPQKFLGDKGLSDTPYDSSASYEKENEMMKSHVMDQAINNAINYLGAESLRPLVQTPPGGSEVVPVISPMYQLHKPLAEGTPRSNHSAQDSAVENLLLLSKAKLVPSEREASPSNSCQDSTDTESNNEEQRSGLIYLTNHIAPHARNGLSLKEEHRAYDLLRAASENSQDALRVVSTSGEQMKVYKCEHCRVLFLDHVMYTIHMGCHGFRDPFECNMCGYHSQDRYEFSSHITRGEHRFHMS
# T2 sequence (Q96SW2 whole entry): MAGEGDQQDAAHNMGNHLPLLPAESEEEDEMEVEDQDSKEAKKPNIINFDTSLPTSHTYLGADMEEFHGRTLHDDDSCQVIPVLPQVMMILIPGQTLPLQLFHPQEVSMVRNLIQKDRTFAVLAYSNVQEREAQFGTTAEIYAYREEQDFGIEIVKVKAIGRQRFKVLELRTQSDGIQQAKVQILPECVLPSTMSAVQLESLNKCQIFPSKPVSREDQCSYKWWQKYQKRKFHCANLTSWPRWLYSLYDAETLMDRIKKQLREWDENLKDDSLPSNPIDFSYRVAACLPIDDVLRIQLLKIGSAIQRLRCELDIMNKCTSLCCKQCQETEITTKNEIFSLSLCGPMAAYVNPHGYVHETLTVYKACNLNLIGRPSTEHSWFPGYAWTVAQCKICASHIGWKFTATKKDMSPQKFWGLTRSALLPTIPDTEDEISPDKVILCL
# T2 sequence (Q16531 whole entry partner): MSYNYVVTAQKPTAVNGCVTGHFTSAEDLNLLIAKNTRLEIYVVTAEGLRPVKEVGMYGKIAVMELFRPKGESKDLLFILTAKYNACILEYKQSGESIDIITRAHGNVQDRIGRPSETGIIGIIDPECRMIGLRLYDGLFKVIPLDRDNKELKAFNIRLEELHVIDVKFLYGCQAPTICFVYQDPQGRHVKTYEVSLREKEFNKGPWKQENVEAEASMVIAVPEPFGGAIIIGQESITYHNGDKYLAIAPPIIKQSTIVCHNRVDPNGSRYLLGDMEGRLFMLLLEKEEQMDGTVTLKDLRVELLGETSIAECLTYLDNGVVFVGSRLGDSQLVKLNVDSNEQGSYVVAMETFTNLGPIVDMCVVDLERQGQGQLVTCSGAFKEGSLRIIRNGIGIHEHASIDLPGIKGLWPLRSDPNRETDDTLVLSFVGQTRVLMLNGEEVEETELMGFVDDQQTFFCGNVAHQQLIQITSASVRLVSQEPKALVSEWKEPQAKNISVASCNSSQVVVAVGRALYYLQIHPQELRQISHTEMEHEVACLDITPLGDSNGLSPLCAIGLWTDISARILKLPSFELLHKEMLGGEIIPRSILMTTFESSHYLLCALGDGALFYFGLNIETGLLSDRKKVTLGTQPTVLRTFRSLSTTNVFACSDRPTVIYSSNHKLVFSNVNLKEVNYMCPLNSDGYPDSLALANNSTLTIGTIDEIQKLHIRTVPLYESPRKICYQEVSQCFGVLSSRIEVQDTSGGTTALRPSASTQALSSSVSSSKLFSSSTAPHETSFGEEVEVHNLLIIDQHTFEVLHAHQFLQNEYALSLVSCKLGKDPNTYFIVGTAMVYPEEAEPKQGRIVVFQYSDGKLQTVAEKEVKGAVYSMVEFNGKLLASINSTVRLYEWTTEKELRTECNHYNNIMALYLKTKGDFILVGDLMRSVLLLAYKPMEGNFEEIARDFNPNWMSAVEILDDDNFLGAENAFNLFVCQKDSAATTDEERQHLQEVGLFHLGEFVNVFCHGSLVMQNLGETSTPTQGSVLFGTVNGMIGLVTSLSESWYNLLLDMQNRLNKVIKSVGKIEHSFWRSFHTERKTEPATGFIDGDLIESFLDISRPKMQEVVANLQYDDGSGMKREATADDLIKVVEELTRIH
# T3 sequence (Q06187 whole entry): as the sequence (Q06187 whole entry) above
compound,measurement,setting,value
"O=C1CCC(N2C(=O)c3cccc(NCC(=O)N4CCN(c5ccc(Nc6nccc(Oc7ccccc7)n6)cc5)CC4)c3C2=O)C(=O)N1 (stereo not shown) [PS-2, 2-(2,6-Dioxopiperidin-3-yl)-4-((2-oxo-2-(4-(4-((4-phenoxypyrimidin-2-yl)amino)phenyl)piperazin-1-yl)ethyl)amino)isoindoline-1,3-dione]",BTK protein level change,BTK [1],downregulated
same,other proteins downregulated by at least 25% with statistical significance,Mino cells [2],No other proteins are downregulated
same,degradation of IKZF1,IKZF1 [3],~50%
same,BTK degradation (result in words),BTK [4],potent BTK degradation
same,DC50,IKZF1 [5],28 nM
same,binding to BTK (result in words),His-BTK,almost no binding to BTK
same,IC50,Mino cells [6],77 nM
